Laboratory results: patent US20050059585A1, “Methionine aminopeptidase-2 inhibitors and methods of use thereof” (Praecis Pharmaceuticals Inc., priority 2000, published 2005)

Experiments:
[1] = tested on: human umbilical vein endothelial cells (HUVEC); test: human endothelial cell growth assay (Huvec assay); assay type: cell-based; details: Homo sapiens, HUVEC; read-out: IC50 (pM), Huvec Assay
Protocol: For the human endothelial cell growth assay, human umbilical vein endothelial cells (HUVEC) were maintained in Clonetics endothelial growth medium (EGM) in a 37° C. humidified incubator. Cells were detached with trypsin and pelleted by centrifugation at 300×g for 5 minutes at room temperature. HUVEC were added to 96-well plates at 5,000 cells/well. After incubating for 6 hours, the medium was replaced with 0.2 ml fresh EGM supplemented with 0.5 nM bFGF and the desired concentration of test angiogenesis inhibitor compound. Test angiogenesis inhibitor compounds were initially dissolved in ethanol at stock concentrations of either 10 mM or 0.1 mM, and subsequently diluted in EGM to obtain concentrations from […] to 10 μM. After 48 hours at 37° C., the medium was replaced with fresh bFGF-supplemented EGM and test angiogenesis inhibitor compound. Following incubation for an additional 48 hours at 37° C. MTT (3-[4,5-dimethylthiazol-2-yl]-2,5-diphenyl-tetrazolium bromide) was added to 1 mg/ml. After 2-4 hours at 37° C. the medium was replaced with 0.1 ml/well isopropanol. The plates were placed on a shaker for 15 minutes at room temperature and analyzed in a Labsystems Multiskan plate spectrophotometer at an optical density of 570 nm.

[2] = tested on: bovine aortic endothelial cell; test: bovine aortic endothelial cell growth assay (Baec assay); assay type: cell-based; details: Bos taurus, BAEC; read-out: IC50 (pM), Baec Assay
Protocol: The angiogenesis inhibitor compounds of the invention were tested for their ability to modulate human endothelial cell growth and for their ability to modulate the activity of MetAP2. The MetAP2 enzyme assay was performed essentially as described in Turk, B. et al. (1999) Chem. & Bio. 6: 823-833, the entire contents of which are incorporated herein by reference. The bovine aortic endothelial cell growth assay (Baec assay) was performed essentially as described in Turk, B. et al. (supra), the entire contents of which are incorporated herein by reference.

SU-DHL-16 = test: Inhibition of GC derived B cell lymphoma lines in culture; assay type: cell-based; details: Homo sapiens, SU-DHL-16, 120 h, read-out: Growth Inhibition Relative to Vehicle Control, GI50%
Pfeiffer = test: as above; assay type: cell-based
D10 = test: as above; assay type: cell-based; details: D10, FL
H2 = test: as above; assay type: cell-based
Ramos = test: as above; assay type: cell-based; details: Burkitt's lymphoma cell line, 0.01-100 nM
[3] = tested on: human lymphoblast SR cells; test: Inhibition of SR cell line in culture, 3H-thymidine incorporation assay; assay type: cell-based
Protocol: […] Incubations were conducted for 3, 5 or 6 days after which cell proliferation relative to vehicle treatment was determined using a ^3H-thymidine incorporation assay. Medium was replaced and fresh drug was added on day 3 for the 5 and 6 day assays.

SR lymphoma tumor = test: In vivo efficacy in SR lymphoma cell tumors grown in mice
Protocol: SR lymphoma tumor cells were injected subcutaneously into SCID/NCr female mice. Tumors were measured using a caliper every 3-4 days beginning on day 12 post-implantation of tumor cells. Animals were weighed routinely on the same days as tumor measurments and monitored for clinical signs of any adverse, drug-related side effects. Treatment with Compound 5 or vehicle began on Day 12 for 5 weeks and ended on Day 44. The endpoints evaluated were optimal percent treated/control (% T/C) and tumor growth delay measured at multiple timepoints during the study.

CO[C@@H]1[C@H](OC(=O)N[C@@H](C(N)=O)C(C)C)CC[C@]2(CO2)[C@H]1[C@@]1(C)O[C@@H]1CC=C(C)C [Example 5, (1-Carbamoyl-2-methyl-propyl)-carbamic acid-(3R, 4S, 5S, 6R )-5-methoxy-4-[(2R, 3R)-2-methyl-3-(3-methyl-but-2-enyl)-oxiranyl]-1-oxa-spiro[2.5]oct-6-yl ester]
IC50 [1]: 93 pM
IC50 [2]: 46 pM
GI50 (SU-DHL-16): 1.9 nM
Growth Inhibition Relative to Vehicle Control, Maximum Inhibition (Pfeiffer; DLBCL, 0.01-100 nM, five or six days): 54%
GI50 (Pfeiffer; Homo sapiens, read-out: Growth Inhibition Relative to Vehicle Control, GI50%): 0.27 nM
GI50 (D10; B-cell, estimated, read-out: Growth Inhibition Relative to Vehicle Control, GI50%): 0.42 nM
Growth Inhibition Relative to Vehicle Control, Maximum Inhibition (D10; 0.01-100 nM, five or six days): 59%
GI50 (H2; B-cell, read-out: Growth Inhibition Relative to Vehicle Control, GI50%): 0.16 nM
Growth Inhibition Relative to Vehicle Control, Maximum Inhibition (H2; H2, FL, 0.01-100 nM, five or six days): 59%
inhibition of proliferation (in words) (Ramos): inhibited the proliferation of all lymphoma lines tested except for the Ramos line
GI50 ([3]; Homo sapiens, SR, 5 and 6 day assays): 0.5 nM
inhibition of proliferation of the SR cell line ([3]; concentrations from 1-100 nM, relative to vehicle): 59-75%
Maximal inhibition ([3]; five or six days of exposure): greater than 90%
optimal % T/C (SR lymphoma tumor; oral route, 15 mg/kg): 48%
optimal % T/C (SR lymphoma tumor; oral route, 30 mg/kg): 43%
tumor growth delay (SR lymphoma tumor; orally, 15 mg/kg): 29%
tumor growth delay (SR lymphoma tumor; orally, 30 mg/kg): 28%
tumor growth delay (SR lymphoma tumor; subcutaneous route, 15 mg/kg): 18%
tumor growth delay (SR lymphoma tumor; subcutaneous route, 30 mg/kg): 19%
optimal % T/C (SR lymphoma tumor; subcutaneously, 15 mg/kg): 70%
optimal % T/C (SR lymphoma tumor; subcutaneously, 30 mg/kg): 50%
